Measured values taken from patent US20250114374A1, “BCL-2 INHIBITORS” (Newave Pharmaceutical Inc., priority 2021, published 2025).
pIC50: −log10 of the molar value.

System: RS4; 11 with G101V mutation
Assay: In vitro anti-proliferation assay (ATPlite luminescence) in BCL-2-dependent ALL cell line RS4;11 with G101V mutation
Assay type: cell-based
Settings: cellular anti-proliferative IC50, about 72 hours, medium with 10% FBS, ATPlite; read-out: RS411-G101V IC50
In short: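 RS4;11 G101V cells at about 1×10^4 per well were exposed to a range of compound concentrations for about 72 h in medium with 10% FBS. Cellular ATP was measured by ATPlite luminescence after lysis, and IC50 was derived from the dose-response.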

| SMILES | pIC50 |
| --- | --- |
| COc1cc(CN2CCN(C3CC4(CCN(c5ccc(C(=O)NS(=O)(=O)c6ccc(NCC7CCC(C)(O)CC7)c([N+](=O)[O-])c6)c(N6c7cc8cc[nH]c8nc7O[C@H]7COCC[C@@H]76)c5)CC4)C3)[C@@H](c3ccccc3OC(C)C)C2)cc2cc(C)oc12 (stereo partly drawn) [Example 129, N-((4-((((1r,4r)-4-hydroxy-4-methylcyclohexyl)methyl)amino)-3-nitrophenyl)sulfonyl)-4-(2-((S)-2-(2-isopropoxyphenyl)-4-((7-methoxy-2-methylbenzofuran-5-yl)methyl)piperazin-1-yl)-7-azaspiro[3.5]nonan-7-yl)-2-((5aS,9aR)-6,7,9,9a-tetrahydro-1H-pyrano[3,4-b]pyrrolo[3′,2′:5,6]pyrido[3,2-e][1,4]oxazin-5(5aH)-yl)benzamide] | 7.47 |
| COc1cc(CN2CCN(C3CC4(CCN(c5ccc(C(=O)NS(=O)(=O)c6cc7c(c([N+](=O)[O-])c6)N[C@@H](C6CCC(C)(O)CC6)CO7)c(N6c7cc8cc[nH]c8nc7O[C@H]7COCC[C@@H]76)c5)CC4)C3)[C@@H](c3ccccc3OC(C)C)C2)cnc1N1CCOCC1 (stereo partly drawn) [Example 130, 2-[(3R,8S)-2,5-dioxa-9,15,17-triazatetracyclo[8.7.0.0^{3,8}.0^{12,16}]heptadeca-1(10),11,13,16-tetraen-9-yl]-4-{2-[(2S)-2-(2-isopropoxyphenyl)-4-{[5-methoxy-6-(morpholin-4-yl)pyridin-3-yl]methyl}piperazin-1-yl]-7-azaspiro[3.5]nonan-7-yl}-N-[(3S)-5-nitro-3-[(1r,4S)-4-hydroxy-4-methylcyclohexyl]-3,4-dihydro-2H-1,4-benzoxazin-7-ylsulfonyl]benzamide] | 7.88 |
| COc1cc(CN2CCN(C3CC4(CCN(c5ccc(C(=O)NS(=O)(=O)c6ccc(NCC7CCOCC7)c([N+](=O)[O-])c6)c(N6c7cc8cc[nH]c8nc7O[C@H]7COCC[C@@H]76)c5)CC4)C3)[C@@H](c3ccccc3OC(C)C)C2)cnc1N1CCOCC1 [Example 131, 2-[(3R,8S)-2,5-dioxa-9,15,17-triazatetracyclo[8.7.0.0^{3,8}.0^{12,16}]heptadeca-1(10),11,13,16-tetraen-9-yl]-4-{2-[(2S)-2-(2-isopropoxyphenyl)-4-{[5-methoxy-6-(morpholin-4-yl)pyridin-3-yl]methyl}piperazin-1-yl]-7-azaspiro[3.5]nonan-7-yl}-N-{3-nitro-4-[(oxan-4-ylmethyl)amino]benzenesulfonyl}benzamide] | 7.46 |
| COc1cc(CN2CCN(C3CC4(CCN(c5ccc(C(=O)NS(=O)(=O)c6ccc(NCC7CCOCC7)c([N+](=O)[O-])c6)c(N6c7cc8cc[nH]c8nc7O[C@H]7COCC[C@@H]76)c5)CC4)C3)[C@@H](c3ccccc3OC(C)C)C2)cnc1N1CCOCC1 [Example 132, 2-[(3R,8S)-2,5-dioxa-9,15,17-triazatetracyclo[8.7.0.0^{3,8}.0^{12,16}]heptadeca-1(10),11,13,16-tetraen-9-yl]-4-{2-[(2S)-2-(2-isopropoxyphenyl)-4-{[5-methoxy-6-(morpholin-4-yl)pyridin-3-yl]methyl}piperazin-1-yl]-7-azaspiro[3.5]nonan-7-yl}-N-{3-nitro-4-[(oxan-4-ylmethyl)amino]benzenesulfonyl}benzamide] | 7.49 |
| COc1cc(CN2CCN(C3CC4(CCN(c5ccc(C(=O)NS(=O)(=O)c6ccc(NCC7CCOCC7)c([N+](=O)[O-])c6)c(N6c7cc8cc[nH]c8nc7O[C@H]7COCC[C@@H]76)c5)CC4)C3)[C@@H](c3ccccc3OC(C)C)C2)cnc1N1CCOCC1 [Example 133, 2-[(3R,8S)-2,5-dioxa-9,15,17-triazatetracyclo[8.7.0.0^{3,8}.0^{12,16}]heptadeca-1(10),11,13,16-tetraen-9-yl]-4-{2-[(2S)-2-(2-isopropoxyphenyl)-4-{[5-methoxy-6-(morpholin-4-yl)pyridin-3-yl]methyl}piperazin-1-yl]-7-azaspiro[3.5]nonan-7-yl}-N-{3-nitro-4-[(oxan-4-ylmethyl)amino]benzenesulfonyl}benzamide] | 7.49 |
| COc1cc(CN2CCN(C3CC4(CCN(c5ccc(C(=O)NS(=O)(=O)c6ccc(NCC7CCC(C)(O)CC7)c([N+](=O)[O-])c6)c(N6c7cc8cc[nH]c8nc7O[C@H]7COCC[C@@H]76)c5)CC4)C3)[C@@H](c3ccccc3OC(C)C)C2)cnc1C1CC1 (stereo partly drawn) [Example 134, 4-{2-[(2S)-4-[(6-cyclopropyl-5-methoxypyridin-3-yl)methyl]-2-(2-isopropoxyphenyl)piperazin-1-yl]-7-azaspiro[3.5]nonan-7-yl}-2-[(3R,8S)-2,5-dioxa-9,15,17-triazatetracyclo[8.7.0.0^{3,8}.0^{12,16}]heptadeca-1(10),11,13,16-tetraen-9-yl]-N-[3-nitro-4-({[(1r,4r)-4-hydroxy-4-methylcyclohexyl]methyl}amino)benzenesulfonyl]benzamide] | 7.73 |
| COc1cc(CN2CCN(C3CC4(CCN(c5ccc(C(=O)NS(=O)(=O)c6ccc(NCC7CCC(C)(O)CC7)c([N+](=O)[O-])c6)c(N6c7cc8cc[nH]c8nc7O[C@H]7COCC[C@@H]76)c5)CC4)C3)[C@@H](c3ccccc3OC(C)C)C2)cnc1C (stereo partly drawn) [Example 135, 2-[(3R,8S)-2,5-dioxa-9,15,17-triazatetracyclo[8.7.0.0^{3,8}.0^{12,16}]heptadeca-1(10),11,13,16-tetraen-9-yl]-4-{2-[(2S)-2-(2-isopropoxyphenyl)-4-[(5-methoxy-6-methylpyridin-3-yl)methyl]piperazin-1-yl]-7-azaspiro[3.5]nonan-7-yl}-N-[3-nitro-4-({[(1r,4r)-4-hydroxy-4-methylcyclohexyl]methyl}amino)benzenesulfonyl]benzamide] | 7.95 |
| COc1ncc(CN2CCN(C3CC4(CCN(c5ccc(C(=O)NS(=O)(=O)c6ccc(NCC7CCC(C)(O)CC7)c([N+](=O)[O-])c6)c(N6c7cc8cc[nH]c8nc7O[C@H]7COCC[C@@H]76)c5)CC4)C3)[C@@H](c3ccccc3OC(C)C)C2)cc1C1CC1 (stereo partly drawn) [Example 136, 4-{2-[(2S)-4-[(5-cyclopropyl-6-methoxypyridin-3-yl)methyl]-2-(2-isopropoxyphenyl)piperazin-1-yl]-7-azaspiro[3.5]nonan-7-yl}-2-[(3R,8S)-2,5-dioxa-9,15,17-triazatetracyclo[8.7.0.0^{3,8}.0^{12,16}]heptadeca-1(10),11,13,16-tetraen-9-yl]-N-[3-nitro-4-({[(1r,4r)-4-hydroxy-4-methylcyclohexyl]methyl}amino)benzenesulfonyl]benzamide] | 7.45 |
| CC(C)Oc1ccccc1[C@H]1CN(Cc2cnc(N3CCOCC3)c(OC(C)C)c2)CCN1C1CC2(CCN(c3ccc(C(=O)NS(=O)(=O)c4ccc(NCC5CCC(C)(O)CC5)c([N+](=O)[O-])c4)c(N4c5cc6cc[nH]c6nc5O[C@H]5COCC[C@@H]54)c3)CC2)C1 (stereo partly drawn) [Example 137, 2-[(3R,8S)-2,5-dioxa-9,15,17-triazatetracyclo[8.7.0.0^{3,8}.0^{12,16}]heptadeca-1(10),11,13,16-tetraen-9-yl]-4-{2-[(2S)-4-{[5-isopropoxy-6-(morpholin-4-yl)pyridin-3-yl]methyl}-2-(2-isopropoxyphenyl)piperazin-1-yl]-7-azaspiro[3.5]nonan-7-yl}-N-[3-nitro-4-({[(1r,4r)-4-hydroxy-4-methylcyclohexyl]methyl}amino)benzenesulfonyl]benzamide] | 7.38 |
| COc1cc(CN2CCN(C3CC4(CCN(c5ccc(C(=O)NS(=O)(=O)c6ccc(NC[C@H]7CC[C@](C)(O)CC7)c([N+](=O)[O-])c6)c(N6c7cc8cc[nH]c8nc7O[C@H]7COCC[C@@H]76)c5)CC4)C3)[C@H](c3ccccc3C)C2)cnc1N1CCOC[C@@H]1C [Example 138, N-((4-((((1r,4r)-4-hydroxy-4-methylcyclohexyl)methyl)amino)-3-nitrophenyl)sulfonyl)-4-(2-((R)-4-((5-methoxy-6-((S)-3-methylmorpholino)pyridin-3-yl)methyl)-2-(o-tolyl)piperazin-1-yl)-7-azaspiro[3.5]nonan-7-yl)-2-((5aS,9aR)-6,7,9,9a-tetrahydro-1H-pyrano[3,4-b]pyrrolo[3′,2′:5,6]pyrido[3,2-e][1,4]oxazin-5(5aH)-yl)benzamide] | 8.77 |
| COc1cc(CN2CCN(C3CC4(CCN(c5ccc(C(=O)NS(=O)(=O)c6ccc(NCC7CCC(C)(O)CC7)c([N+](=O)[O-])c6)c(N6c7cc8cc[nH]c8nc7O[C@H]7COCC[C@@H]76)c5)CC4)C3)[C@H](c3ccccc3C)C2)cnc1N1CCOC[C@H]1C (stereo partly drawn) [Example 139, 2-[(3R,8S)-2,5-dioxa-9,15,17-triazatetracyclo[8.7.0.0^{3,8}.0^{12,16}]heptadeca-1(10),11,13,16-tetraen-9-yl]-4-{2-[(2R)-4-({5-methoxy-6-[(3R)-3-methylmorpholin-4-yl]pyridin-3-yl}methyl)-2-(2-methylphenyl)piperazin-1-yl]-7-azaspiro[3.5]nonan-7-yl}-N-[3-nitro-4-({[(1r,4r)-4-hydroxy-4-methylcyclohexyl]methyl}amino)benzenesulfonyl]benzamide] | 8.46 |
| COc1cc(CN2CCN([C@@H]3CC4(CCN(c5ccc(C(=O)NS(=O)(=O)c6ccc(NCC7CCC(C)(O)CC7)c([N+](=O)[O-])c6)c(N6c7cc8cc[nH]c8nc7O[C@H]7COCC[C@@H]76)c5)CC4)[C@@H]3C)[C@H](c3ccccc3C)C2)cnc1N1CCOCC1 (stereo partly drawn) [Example 140, 2-[(3R,8S)-2,5-dioxa-9,15,17-triazatetracyclo[8.7.0.0^{3,8}.0^{12,16}]heptadeca-1(10),11,13,16-tetraen-9-yl]-4-[(1S,2R)-2-[(2R)-4-{[5-methoxy-6-(morpholin-4-yl)pyridin-3-yl]methyl}-2-(2-methylphenyl)piperazin-1-yl]-1-methyl-7-azaspiro[3.5]nonan-7-yl]-N-[3-nitro-4-({[(1r,4r)-4-hydroxy-4-methylcyclohexyl]methyl}amino)benzenesulfonyl]benzamide] | 8.19 |
